Results on seven compounds are retold here after patent US20210177828A1, “TAM FAMILY KINASE /AND CSF1R KINASE INHIBITOR AND USE THEREOF” (Nanjing Transthera Biosciences Co., Ltd., priority 2018, published 2021).

Data set [1] deals with CSF1R (h) (Homo sapiens, UniProt P07333). Kind of data set: Enzymatic activity assay, CSF1R (h), [γ-33P]-ATP filter assay. Format: biochemical. Particulars: 10 μM ATP, 40 min room temperature; read-out: Inhibitory activity IC50 CSF1R(h). How it is done: Compounds were each dissolved in 100% DMSO to prepare stock solutions with a maximum concentration of 500 μM.
Chain of CSF1R (h) (P07333 20-972): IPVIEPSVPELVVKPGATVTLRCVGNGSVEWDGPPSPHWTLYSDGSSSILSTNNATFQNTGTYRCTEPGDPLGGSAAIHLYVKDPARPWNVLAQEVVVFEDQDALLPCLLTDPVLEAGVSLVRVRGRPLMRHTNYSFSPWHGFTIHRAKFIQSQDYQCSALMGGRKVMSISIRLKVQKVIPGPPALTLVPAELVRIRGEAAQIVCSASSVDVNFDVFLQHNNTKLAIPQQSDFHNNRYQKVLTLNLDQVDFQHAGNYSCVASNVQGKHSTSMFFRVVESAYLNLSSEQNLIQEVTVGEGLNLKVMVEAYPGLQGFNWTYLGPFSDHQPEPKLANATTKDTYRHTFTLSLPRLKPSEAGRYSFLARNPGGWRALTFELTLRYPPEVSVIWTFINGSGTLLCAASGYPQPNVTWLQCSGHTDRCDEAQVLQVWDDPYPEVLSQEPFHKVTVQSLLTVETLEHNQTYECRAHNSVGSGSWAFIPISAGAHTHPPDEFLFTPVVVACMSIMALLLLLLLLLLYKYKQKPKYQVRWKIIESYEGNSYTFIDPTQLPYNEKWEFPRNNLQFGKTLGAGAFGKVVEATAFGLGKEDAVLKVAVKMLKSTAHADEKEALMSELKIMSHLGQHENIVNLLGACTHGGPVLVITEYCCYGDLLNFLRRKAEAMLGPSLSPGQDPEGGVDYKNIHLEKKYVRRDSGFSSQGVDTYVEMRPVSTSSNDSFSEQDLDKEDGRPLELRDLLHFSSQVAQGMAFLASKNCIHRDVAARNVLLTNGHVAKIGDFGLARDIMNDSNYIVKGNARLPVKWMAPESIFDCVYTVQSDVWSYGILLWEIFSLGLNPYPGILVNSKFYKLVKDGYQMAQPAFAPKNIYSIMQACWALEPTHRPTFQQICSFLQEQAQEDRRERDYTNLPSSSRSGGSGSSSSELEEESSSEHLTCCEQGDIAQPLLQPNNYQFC
Compound working solutions (50×) were prepared by diluting a compound stock solution to a final concentration of 500, 150, 50, 15, 5, 1.5, 0.5, 0.15 and 0.05 μM.
An enzyme solution with a final concentration of 64 nM was prepared by dissolving CSF1R enzyme in a mixture of 8 mM MOPS (pH 7.0), 0.2 mM EDTA and 250 μM KKSRGDYMTMQIG. A Mg/ATP mixture of 10 mM magnesium acetate and 10 μM [γ-^33P]-ATP was used to activate the enzymatic reaction.
A compound working solution was added to a 384-well plate, with final concentrations of 10,000, 3,000, 1,000, 300, 100, 30, 10, 3 and 1 nM, and then different enzymatic reaction solutions prepared according to the above conditions were added. The reaction solutions were incubated at room temperature for 40 min, and then 0.5% phosphoric acid solutions were added to terminate the reaction. 10 μL of the reaction solution was added dropwise to P30 filter paper, washed 4 times with a 0.425% phosphoric acid solution and once with methanol, and then placed in a scintillation counter for detection. Gray analysis was performed on the results with Image J software, and IC50 values were calculated with GraphPad 5.0 software.

Data set [2] concerns the target T1, H1299 cell pMer (Homo sapiens, UniProt Q12866).
T1 construct: endogenous in cells; host or cells: H1299
T1 sequence (Q12866 21-999): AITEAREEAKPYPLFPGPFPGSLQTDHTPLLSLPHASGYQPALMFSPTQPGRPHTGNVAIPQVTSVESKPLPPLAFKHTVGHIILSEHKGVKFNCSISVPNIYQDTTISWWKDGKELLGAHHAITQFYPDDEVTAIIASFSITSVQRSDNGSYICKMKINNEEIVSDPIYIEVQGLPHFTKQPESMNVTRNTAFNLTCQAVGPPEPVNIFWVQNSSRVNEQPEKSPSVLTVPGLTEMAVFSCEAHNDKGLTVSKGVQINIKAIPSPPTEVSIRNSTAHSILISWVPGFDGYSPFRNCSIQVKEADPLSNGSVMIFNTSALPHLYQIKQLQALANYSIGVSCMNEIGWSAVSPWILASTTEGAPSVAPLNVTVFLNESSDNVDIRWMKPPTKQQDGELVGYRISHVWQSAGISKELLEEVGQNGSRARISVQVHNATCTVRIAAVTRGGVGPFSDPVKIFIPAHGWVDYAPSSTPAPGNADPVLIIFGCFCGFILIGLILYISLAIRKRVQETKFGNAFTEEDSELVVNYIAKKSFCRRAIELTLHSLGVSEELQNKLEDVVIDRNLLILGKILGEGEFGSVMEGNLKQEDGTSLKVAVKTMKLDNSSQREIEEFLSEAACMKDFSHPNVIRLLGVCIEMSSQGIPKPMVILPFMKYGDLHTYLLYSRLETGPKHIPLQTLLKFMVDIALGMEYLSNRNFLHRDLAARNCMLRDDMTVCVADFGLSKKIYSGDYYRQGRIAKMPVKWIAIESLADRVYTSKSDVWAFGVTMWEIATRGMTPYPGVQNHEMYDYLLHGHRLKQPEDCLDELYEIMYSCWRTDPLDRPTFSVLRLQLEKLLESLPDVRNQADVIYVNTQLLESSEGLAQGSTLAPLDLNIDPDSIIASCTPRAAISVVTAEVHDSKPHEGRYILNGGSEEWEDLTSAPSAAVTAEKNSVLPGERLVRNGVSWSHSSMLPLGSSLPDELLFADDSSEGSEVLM
Kind of data set: Inhibitory activity on cell pMer, H1299 cells, Human Mer Mab stimulation, Western Blot. In kind it is cell-based. Particulars: Human Mer Mab 200 ng/mL. The method, then:
H1299 is anon-small cell lung cancer cell.
H1299 cells were inoculated to a 6-well plate (containing 10% FBS 1640 medium, 5×10^5 cells per well) and adherently cultivated at 37° C., and 5% CO2 for 18 hrs. The cells were starved overnight, and then compound solutions with different concentrations were added. The compounds had final concentrations of 0.35, 1.1, 3.3 and 10 nM. […] There was a medium containing 1‰DMSO in the negative control well. The cells were incubated at 37° C., and 5% CO2 for 60 min, and then Human Mer Mab (R&D, final concentration: 200 ng/mL) was added to each well. The cells were further incubated for 60 min, and then the total protein of the cells was extracted for Western Blot experiment. Gray analysis was performed on the results with Image J software, and IC50 values were calculated with GraphPad 5.0 software. The inhibitory activities of the compounds on cell pMer were detected.
(Immunoblotting shows a protein as a band on a membrane.)

A short description of data set [3]: Liver microsomal stability. Format: in vitro ADME. Particulars: mouse liver microsomes, 0.5 mg protein/mL, 1 μM compound. How it is done:
An appropriate amount of the compound was precisely weighed and dissolved in DMSO to prepare a 5.0 mM stock solution. The 5.0 mM stock solution was diluted with DMSO to 1.0 mM, and finally diluted with water to a 10 μM working solution of the test sample for use (the DMSO content in the reaction system was 0.1%).
(1) The liver microsomes (20 mg protein/mL) were taken from a −80° C. refrigerator, pre-incubated on a 37° C. water bath thermostatic oscillator for 3 min, and thawed for use.
(2) An incubation system (without compound and β-NADPH) was prepared according to “composition of the incubation system” described above, and pre-incubated on a 37° C. water bath thermostatic oscillator for 2 min.
(3) Control group (without β-NADPH): 30 μL of water and 30 μL of compound working solution (10 μM) were added to 240 μL of the incubation system in step (2), and the reaction system was vortexed for 30 s and thoroughly mixed. The total volume of the reaction system was 300 μL. The sample was duplicated. The reaction solution was placed on a 37° C. water bath thermostatic oscillator for incubation, and timing was started. The sampling was conducted at 0 min and 60 min.
(4) Sample group: 70 μL of β-NADPH solution (10 mM) and 70 μL of compound working solution (10 μM) were added to 560 μL of the incubation system in step (2), and the total volume of the reaction system was 700 μL. The reaction solution was vortexed for 30 s and thoroughly mixed. The sample was duplicated. The reaction solution was placed on a 37° C. water bath thermostatic oscillator for incubation, and timing was started. The sampling was conducted at 0 min, 5 min, 10 min, 20 min, 30 min and 60 min.
(5) The reaction solution was vortexed for 3 min, and centrifuged at 12,000 rpm for 5 min.
(6) 50 μL of the supernatant was added to 150 μL of water, and the resulting solution was thoroughly vortexed and analyzed by LC/MS/MS.

Usually IC50 stands for the concentration needed to halve the response being measured. Broadly, the half-life is the time in which the quantity being followed falls by half. In general, microsomal CLint refers to a measure of how fast metabolising enzymes remove a compound, apart from limits set by blood flow. The low end stands for greater metabolic stability, the high end for faster metabolism. For `COc1cc2nccc(Oc3ccc(NC(=O)c4nn(C5CCOCC5)cc(-c5ccc(C)cc5)c4=O)nc3)c2cc1OC` [Compound 17, N-(5-((6,7-dimethoxyquinolin-4-yl)oxy)pyridin-2-yl)-4-oxo-1-(tetrahydro-2H-pyran-4-yl)-5-(p-tolyl)-1,4-dihydropyridazin-3-carboxamide], the IC50 in data set [1] was less than 200 nM; in data set [2], less than 0.35 nM. The half-life at 1 μM in data set [3] turned out to be 1.87 h. Further, the microsomal CLint at 1 μM in data set [3] was found to be 12.4 µL/min/mg.

`COc1cc2nccc(Oc3cnc(NC(=O)c4nn(C5CCOCC5)cc(-c5ccc(C)cc5)c4=O)nc3)c2cc1OC` [Compound 18, N-(5-((6,7-dimethoxyquinolin-4-yl)oxy)pyrimidin-2-yl)-4-oxo-1-(tetrahydro-2H-pyran-4-yl)-5-(p-tolyl)-1,4-dihydropyridazin-3-carboxamide]: the IC50 in data set [1] was less than 200 nM. For the same compound, the IC50 in data set [2] is less than 1.1 nM. Besides, in data set [3], the half-life at 1 μM amounted to 1.93 h and the microsomal CLint at 1 μM was found to be 12 µL/min/mg.

On to `COc1cc2nccc(Oc3cnc(NC(=O)c4cn(C5CCOCC5)cc(-c5ccc(C)cc5)c4=O)nc3)c2cc1OC` [Compound 20, N-(5-((6,7-dimethoxyquinolin-4-yl)oxy)pyrimidin-2-yl)-4-oxo-1-(tetrahydro-2H-pyran-4-yl)-5-(p-tolyl)-1,4-dihydropyridin-3-carboxamide], for which the IC50 in data set [1] was less than 200 nM. Moreover, the IC50 in data set [2] fell in the range of 3.3 to 10 nM. Also, in data set [3], the half-life at 1 μM is 3.73 h and the microsomal CLint at 1 μM amounted to 6.2 µL/min/mg.

As for `COc1cc2nccc(Oc3ccc(NC(=O)c4cn(C5CCOCC5)cc(-c5ccc(F)cc5)c4=O)nc3)c2cc1OC` [Compound 27, N-(5-((6,7-dimethoxyquinolin-4-yl)oxy)pyridin-2-yl)-5-(4-fluorophenyl)-4-oxo-1-(tetrahydro-2H-pyran-4-yl)-1,4-dihydropyridin-3-carboxamide], the IC50 in data set [1] is less than 200 nM. In data set [2], the IC50 is less than 1.1 nM. In data set [3], this compound yielded a half-life at 1 μM of 5.02 h and a microsomal CLint at 1 μM of 4.6 µL/min/mg.

As to `COc1cc2nccc(Oc3ccc(NC(=O)c4nn(C5CCOCC5)cc(-c5ccc(C)cc5)c4=O)cc3F)c2cc1OC` [Compound 28], the IC50 in data set [1] is less than 200 nM. This compound had an IC50 in data set [2] of 1.1 nM. In addition, in data set [3], the half-life at 1 μM is 1.44 h and the intrinsic clearance (microsomal CLint) at 1 μM was 16 µL/min/mg.

Consider `COc1cc2nccc(Oc3cnc(NC(=O)c4cn(C5CCOCC5)cc(-c5ccc(F)cc5)c4=O)nc3)c2cc1OC` [Compound 31, N-(5-((6,7-dimethoxyquinolin-4-yl)oxy)pyrimidin-2-yl)-5-(4-fluorophenyl)-4-oxo-1-(tetrahydro-2H-pyran-4-yl)-1,4-dihydropyridin-3-carboxamide], for which the half-maximal inhibitory concentration (IC50) in data set [1] was less than 200 nM; in data set [2], 3.3 to 10 nM. In addition, the half-life at 1 μM in data set [3] came out at 6.42 h. Also, the microsomal CLint at 1 μM in data set [3] is 3.6 µL/min/mg.

Take `COc1cc2nccc(Oc3ccc(NC(=O)c4cc(CC5CCOCC5)cn(-c5ccc(F)cc5)c4=O)nc3)c2cc1OC` [Compound 32, N-(5-((6,7-dimethoxyquinolin-4-yl)oxy)pyridin-2-yl)-1-(4-fluorophenyl)-2-oxo-5-((tetrahydro-2H-pyran-4-yl)methy 1)-1,2-dihydropyridin-3-carboxamide]: the IC50 in data set [1] was less than 200 nM; in data set [2], 1.1 nM. In data set [3], this compound registered a half-life at 1 μM of 1.39 h. The compound further displayed a microsomal CLint at 1 μM in data set [3] of 16.6 µL/min/mg.
